“Also recorded” adds a separate entry of the source.
Experiments:
isolated rat aorta [1] = test: In vitro vasorelaxation of epinephrine-contracted rat aortic rings (CCRC); assay type: cell-based; details: isolated rat aorta pre-treated in vitro with 1 μM epinephrine; for vasorelaxation effect as compared with glyceryltrinitrate: in words
Description: Male Sprague Dawley rats were anaesthetized using intraperitoneal injection of ketamine and xylazine (50 and 10 milligram per kilogram, respectively) and the thoracic aorta, the large upper portion of the descending aorta, starting at the caudal border of the chest bone, was removed thereafter, while carefully removing the paraadventetial tissue surrounding the vessel. Aortae were cut into rings of 4-5 millimeters and mounted onto the tissue path. The path buffer (Krebs-bicrbonate) was constantly gassed with carbogen and maintained at 37° C. The rings were preloaded under 2 g tension and equilibrated for 90 minutes, while refreshing the buffer every 15 minutes. After stabilization, the rings were contracted with epinephrine (1 μM). Cumulative Concentration—Response Curves (CCRC) were measured for the vasorelaxing effect induced by adding various concentrations, ranging from 10^−10 M to 10^−5 M of Pet-2, Pet-3, Pet-7, Pet-8, Pet-12, Pet-24, Pet-43, Pet-59, Pet-147, Pet-152 and Pet-154, and glyceryltrinitrate (GTN), according to the procedure described in Feelich et al., Molecular Pharmacology, 56:243-253 (1999), The vehicle, which was used for this experiment was water:ethanol:propyleneglycol at proportional ratio of 1:1:1.
The vasorelaxing effect of the thiazole-derived NO-donors according to the present invention was measured on slices of thoracic aorta of rats contracted with epinephrine, as described hereinabove.

[2] = test system: c-GMP in slices of thoracic aorta of rats; test: Cyclic-GMP measurement in aortic rat tissue (radioimmunoassay); assay type: cell-based; details: in words; for levels of cGMP as compared with GTN: isolated rat aorta, FIGS. 25, 27, 33
Method: GTN (10^−6 M) was added to the chamber and, 1 minute after exposure to the drug, rings (usually 3-5) were taken, wrapped with aluminum foil and immediately frozen in liquid nitrogen for storage. Control sample group was treated with the vehicle solution only. At the time of analysis, rings were thawed, blotted over a dry gauzed and weighted. A known weight of tissue was homogenized in 2 ml ice-cold modified Hank's balanced salt solution containing (in gram/liter) NaCl 8; KCl 0.4; glucose 1; KH2PO4 0.06; Na2HPO4 0.047; Phenol red 0.017 and further containing 25 mM EDTA (disodium salt). The homogenate was centrifuged at 4000 g (force units) for 10 minutes at 2-4° C. and the supernatant was thereafter transferred into fresh pre-cooled test tube containing 1 ml of acetonitrile. The tubes were vortex mixed for a few seconds and subsequently centrifuged at 4000 g for 5 minutes at 2-4° C., to remove the precipitated protein. Each supernatant was transferred into a clean test tube and evaporated to dryness under a stream of nitrogen at 55° C. The dry residue was reconstituted with 10 volumes of Tris-EDTA buffer pH 7.5 (0.05 M Tris containing 4 mM EDTA). Aliquots of 100 μl of the reconstituted solution in duplicate were used for c-GMP measurements using Amersham RIA kit, as is described in Haj-Yehia & Benet [Pharmacology, 1995, 273, 1, pp. 94-100]. Standard curves were plotted with six concentrations (0, 0.5, 1, 2, 4 and 8 pmoles of c-GMP per tube).
The NO-tolerance effect of GTN and NO-donor compounds according to the present invention was measured by following the production of c-GMP in slices of thoracic aorta of rats. Thus, the production of c-GMP was measured as described in the methods section above for the reference NO-donor compound GTN, and for the NO-donors of the present invention Pet-2, Pet-3, Pet-7, Pet-8, Pet-10, Pet-12, Pet-24, Pet-59, Pet-147, Pet-149, Pet-152, Pet-154 and Pet-155.

[3] = test system: cyclic-GMP in isolated aorta of rats pre-treated in vivo; test: Induction of in vivo nitrate tolerance: cGMP in aorta of rats infused for 16 hours; parameters: species or system rat; details: rats infused 200 μg/hour for 16 hours, aorta then exposed to 1 μM; in words
Method: For c-GMP levels and tolerance development, the rat's thoracic aorta was isolated after exposure to the tested compound in vivo, and measured as described above in the in vitro assays.
Male Sprague Dawley rats (220 to 250 grams) were housed under constant temperature and humidity conditions. Light was maintained at a 12/12 light dark cycle. Except for 12 hours before the experiment, when food fasting was initiated, all rats had free access to standard rat pellet diet and tap water. The animals were anesthetized by intraperitoneal injection of ketamine and xylazine combination (50 and 10 milligram per kilogram, respectively). […] The catheters were filled with normal saline solution containing 1000 IU/ml of heparin and plugged with a metal pin. Catheters were externalized to the back of the neck region and secured by a polyester felt disk.
After implantation, the rats were individually housed until they regained their preoperative weight and appeared healthy (3 to 4 days post-operation). At this time point (day 0), an osmotic mini-pump (Alza Corp., Palo Alto, Calif.) delivering constant volume (10 μl/hour) of vehicle or drug was connected to one of the intravenous catheters.
For inducing tolerance to the tested NO-donor according to the present invention, the animals received 200 μg/hour of the tested compound for 16 hours (short-term-induced tolerance). […]

[4] = test system: anesthetized hypertensive Sprague-Dawley male rats; test: Hypotensive effects: mean arterial pressure after iv bolus in phenylephrine-treated rats; assay type: in vivo, rat; details: rats pre-treated with phenylephrine, in words
Method: Mean arterial pressure (MAP) was monitored and determined during bolus infusion of Pet-2, Pet-3, Pet-7, Pet-8, Pet-12 and Pet-13. Briefly, polyethylene catheters (PE50) were inserted into the carotid artery and into the jugular vein of anesthetized hypertensive Sprague-Dawley male rats (200-300 grams). A blood pressure recorder was placed within the carotid artery. Phenylephrine (0.1 mg) was then injected and the mean arterial blood pressure (MABP) was monitored continuously until a stable baseline was reached. The hypotensive effects of intravenous (iv) bolus doses (0.1 mg of each tested compound) administered intravenously at the jugular vein in minimal volume of vehicle (0.2 ml per dose) were evaluated. Five minutes were allowed between each dose, during which the maximal decrease in MAP was recorded and a dose-response graph comparing the hypotensive effect of the compounds was constructed.

isolated rat aorta [5] = test: In vitro induction of tolerance and cross-tolerance: vasorelaxation of pre-exposed rat aortic rings; assay type: cell-based; details: in words; for tolerance induction in vitro: rings pre-treated with epinephrine and then with the same compound (0.44 mM) versus control
Method: Aortic rings were prepared as described hereinabove, and were exposed to 0.44 mM GTN (vehicle was water:ethanol:propyleneglycol at proportional ratio of 1:1:1) for 1 hour before CCRC construction, to thereby induce tolerance to nitroglycerine. At the end of the tolerance induction period, rings were thrice washed with the path buffer (Krebs-bicrbonate) every 15 minutes for the following hour and then CCRC for vasorelaxation on GTN-induced tolerance rings were constructed for GTN (pretreated versus untreated rings, FIG. 15), in order to verify the ability to induce and measure GTN tolerance induction in vitro Attempted induction of tolerance to the NO-donating compounds of the present invention was performed under the same conditions as for GTN. Thus, in an exemplary experiment, rings were exposed to 0.44 mM solution of Pet-3 in the attempt to induce tolerance for Pet-3. CCRC were then measured for the vasorelaxing effect of Pet-3 on a group of rings which were pre-exposed to Pet-3 as to induce tolerance to Pet-3, and for an untreated control group. The above protocol was repeated with Pet-2, Pet-7, Pet-8, Pet-12, Pet-24, Pet-43, Pet-149 and Pet-152.
Cross-tolerance studies were conducted using the same technique described above for measuring vasorelaxation of aortic rings from rats. Two groups of aortic rings samples were pre-treated with GTN, then one group was measured for vasorelaxation by GTN and the second group for vasorelaxation by Pet-12, an exemplary NO-donor according to the present invention. For the opposite cross-tolerance studies, two groups of aortic rings samples were pre-treated with Pet-12, then one group was measured for vasorelaxation by GTN and the second group for vasorelaxation by Pet-12.

Row | Compound | vasorelaxation effect as compared with glyceryltrinitrate (isolated rat aorta [1]) | levels of cGMP as compared with GTN [2] | tolerance induction in vitro (isolated rat aorta [5]) | also measured
1 | Cc1nc(NC(=O)[C@@H](C)c2ccc(CC(C)C)cc2)sc1CCO[N+](=O)[O-] (stereo in doubt) [Pet-152, 2-(4-Isobutyl-phenyl)-N-[4-methyl-5-(2-nitrooxy-ethyl)-thiazol-2-yl]-propionamide] | superior vasorelaxation effect | increased levels of cGMP | – | –
2 | O=[N+]([O-])OCC(CO[N+](=O)[O-])O[N+](=O)[O-] [GTN, glyceryl trinitrate, reference compound] | – | – | tolerance induced by treatment with GTN | level of cGMP following a repeated treatment in vivo (tolerance induction) [3]: tolerance inducing effect; also recorded: decreased; hypotensive effect on MAP following successive administrations [4]: attenuation in its effect on MAP; c-GMP level following a repeated treatment ([2]; thoracic aorta of rats): significantly reduced
3 | Cc1nc(C)c(CCO[N+](=O)[O-])s1 [Pet-3, 2,4-Dimethyl-5-(2-nitrooxy-ethyl)-thiazole] | superior vasorelaxation effect | increased levels of cGMP | absence of tolerance induction | –
4 | Cc1nc(N(C)C)sc1CCO[N+](=O)[O-] [Pet-7, Dimethyl-[4-methyl-5-(2-nitrooxy-ethyl)-thiazol-2-yl]-amine] | superior | increased levels of cGMP | absence of tolerance induction | vasorelaxation effect, fold higher than glyceryltrinitrate (isolated rat aorta [1]): 10 fold
5 | Cc1nc(-c2ccccc2)sc1CCO[N+](=O)[O-] [Pet-8, 4-Methyl-5-(2-nitrooxy-ethyl)-2-phenyl-thiazole] | superior vasorelaxation effect | increased levels of cGMP | – | –
6 | Cc1nc(N)sc1CCO[N+](=O)[O-] [Pet-10, 4-methyl-5-(2-nitrooxy-ethyl)-thiazole-2-ylamine] | – | increased levels of cGMP | – | –
7 | Cc1nc(-c2cccnc2)sc1CCO[N+](=O)[O-] [Pet-12, 3-[4-Methyl-5-(2-nitrooxy-ethyl)-thiazole-2-yl]-pyridine] | – | – | absence of tolerance induction | level of cGMP following a repeated treatment in vivo (tolerance induction) [3]: absence of tolerance induction; also recorded: lack of tolerance induction; cross-tolerance: vasorelaxation in rings pre-treated with GTN (isolated rat aorta [5]; rat aortic rings pre-treated with epinephrine and then with GTN): absence of tolerance induction effect; also recorded: no effect; cross-tolerance: vasorelaxation in rings pre-treated with Pet-12 (isolated rat aorta [5]; rat aortic rings pre-treated with epinephrine and then with Pet-12): absence of tolerance induction effect; also recorded: does not evoke tolerance to itself not to GTN
8 | CNc1cncc(-c2nc(C)c(CCO[N+](=O)[O-])s2)n1 [Pet-24, Methyl-{6-[4-methyl-5-(2-nitrooxy-ethyl)-thiazol-2-yl]-pyrazin-2-yl}-amine] | – | increased levels of cGMP | absence of tolerance induction | –
9 | Cc1nc(Nc2nc(C)c(CCO[N+](=O)[O-])s2)sc1CCO[N+](=O)[O-] [Pet-43, Bis-[4-methyl-5-(2-nitrooxy-ethyl)-thiazol-2-yl]-amine] | superior vasorelaxation effect | – | absence of tolerance induction | –
10 | Cc1nc(-c2ccc(C(F)(F)F)cc2)sc1CCO[N+](=O)[O-] [Pet-59, 4-Methyl-5-(2-nitrooxy-ethyl)-2-(4-trifluoromethyl-phenyl)-thiazole] | superior vasorelaxation effect | increased levels of cGMP | – | –
11 | CCNc1nc(C)c(CCO[N+](=O)[O-])s1 [Pet-147, Ethyl-[4-methyl-5-(2-nitrooxy-ethyl)-thiazol-2-yl]-amine] | – | increased levels of cGMP | – | –
12 | Cc1nc(Nc2cccc3ccccc23)sc1CCO[N+](=O)[O-] [Pet-149, [4-Methyl-5-(2-nitrooxy-ethyl)-thiazol-2-yl]-naphthalen-1-yl-amine] | superior vasorelaxation effect | increased levels of cGMP | absence of tolerance induction | –
13 | Cc1nc(NC(=O)c2cccnc2)sc1CCO[N+](=O)[O-] [Pet-154, N-[4-methyl-5-(2-nitrooxy-ethyl)-thiazol-2-yl]-nicotinamide] | – | increased levels of cGMP | – | –
14 | C=CCNc1nc(C)c(CCO[N+](=O)[O-])s1 [Pet-155, allyl-[4-methyl-5-(2-nitrooxy-ethyl)-thiazol-2-yl]-amine] | superior vasorelaxation effect | increased levels of cGMP | – | –
